Laboratory results: ChEMBL document CHEMBL1157539, “Thousands of chemical starting points for antimalarial lead identification” (Nature, 2010)

tested on: Plasmodium falciparum; test: GSK_TCMDC: Inhibition of Plasmodium falciparum 3D7 in whole erythrocytes, using parasite LDH activity as an index of growth.; type: functional, organism-based; conditions: Plasmodium falciparum, 3D7

`CN(C)CCCNc1c2ccccc2nc2ccccc12` and `CCCCN(CCCC)CCCCCCNc1c2ccccc2nc2ccccc12` are within 1.5-fold of each other in XC50: 1040 nM for the first, 776 nM for the second.

`CCCCc1ccc(C(=O)Nc2ccc3nc(N4CCN(CC)CC4)cc(C)c3c2)cc1` and `COc1ccc(NC(=O)Nc2ccc(-c3ccncc3)c(C(F)(F)F)c2)cc1N1CCN(C)CC1` are within 1.5-fold of each other in XC50: 905 nM for the first, 763 nM for the second.

Going from `Cc1ccc2c(=O)cc(CCc3cccc(F)c3F)n(CC(=O)N(Cc3ccc(-c4ccc(C(F)(F)F)cc4)cc3)C3CCN(C(C)C)CC3)c2n1` to `O=C(CCC1CCCC1)N(Cc1ccc(-c2ccc(CNCCc3ccccc3)cc2)cc1)C1CCCNC1` (configuration not stated), the XC50 rises from 776 nM to 1220 nM (1.6-fold).

Compared with `Cc1[nH]cc(Br)c(=O)c1-c1ccc(Oc2ccc(OC(F)(F)F)cc2)cc1`, `O=C(Nc1cc(Oc2ccc(O)cc2)cc([N+](=O)[O-])c1)c1cc(-c2ccc(F)cc2)no1` is 2.9-fold higher in XC50: 325 nM for the first, 955 nM for the second.

Going from `O=C(Nc1cccc(-c2nn3ncccc3c2-c2ccnc(Nc3ccc(N4CCOCC4)cc3)n2)c1)c1c(F)cccc1F` to `O=C(Nc1cccc(-c2cccc(-c3nc4cc(C(F)(F)F)ccc4[nH]3)c2)c1)c1ccc(=O)[nH]n1`, the XC50 rises from 158 nM to 656 nM (4.2-fold).

Going from `Cc1cccc2nc(-c3ccc(-c4cccc(CNCc5ccc(S(C)(=O)=O)cc5)c4)s3)[nH]c12` to `Cc1cccc2nc(-c3ccc(-c4cccc(CNCc5ccccc5)c4)s3)[nH]c12`, the XC50 rises from 334 nM to 741 nM (2.2-fold).

`COc1ccc2c(NN=CC=Cc3ccccc3)ccnc2c1` and `FC(F)(F)c1cccc2c(NN=Cc3ccccc3)ccnc12` are within 1.5-fold of each other in XC50: 770 nM for the first, 624 nM for the second.

Going from `CC(C)Sc1ccc(Cl)cc1CON1C(=N)N=C(N)NC1(C)C` to `Cc1c[nH]c(CCNC(=O)c2cc(-c3ccc(Cl)cc3)cs2)n1`, the XC50 rises from 3.2 nM to 242 nM (76-fold).

Compared with `CS(=O)(=O)c1cccc(-c2cnc(N)c3cc(-c4ccc(F)cc4)ccc23)c1`, `Nc1cccc(CNCc2cccc(-c3ccc(-c4nc5cc(C(F)(F)F)ccc5[nH]4)cc3)c2)c1` is 2.5-fold lower in XC50: 903 nM for the first, 360 nM for the second.

`CCOC(=O)NCC(=O)Nc1cccc(-c2cccc(-c3nc4cc(C(F)(F)F)ccc4[nH]3)c2)c1` and `C#CCCC(=O)Nc1cccc(-c2cccc(-c3nc4cccc(C)c4[nH]3)c2)c1` are within 1.5-fold of each other in XC50: 626 nM for the first, 736 nM for the second.

Going from `CCOCc1cn(CC(=O)c2ccc(-c3ccccc3)cc2)c(C)nc1=N` to `CCOC(=O)c1cn(CC)c2cc(OCc3ccccc3)ccc2c1=O`, the XC50 rises from 319 nM to 947 nM (3-fold).

`Cc1cc(NC2CCN(Cc3ccccc3)CC2)nc(NCCCCc2ccccc2)n1` and `CC(C)CNCc1ccc(-c2ccccc2CNC2CCN(Cc3ccccc3)CC2)cc1` are within 1.5-fold of each other in XC50: 383 nM for the first, 565 nM for the second.

First: FC(F)(F)c1ccc2[nH]c(-c3ccc(-c4cccc(CN5CCC(CCN6CCCCC6)CC5)c4)cc3)nc2c1
Second: c1cc(CN2CCCCC2)cc(OCCCNc2ccnc3ccccc23)c1
The XC50 of the first is 2.8-fold lower: 153 nM for the first, 433 nM for the second.

Compared with `O=c1[nH]ccc2nc(N[C@@H]3CCNC3)nc(Nc3cccc(S(=O)(=O)N4CCOCC4)c3)c12`, `Cc1ccc(O)c(-c2cc(C(=O)Nc3ccc(S(=O)(=O)N4CCCCC4)cc3)[nH]n2)c1` is 1.5-fold lower in XC50: 1230 nM for the first, 805 nM for the second.

`CC(C)N1CCN(C(CN2CCN(CCCOc3ccc4ccccc4c3)CC2)c2ccc(F)cc2)CC1` (configuration not stated) and `O=C(Nc1ccc2c(c1)CCNCC2)Nc1ccc2ccccc2c1` are within 1.5-fold of each other in XC50: 581 nM for the first, 622 nM for the second.

`Cc1ccc(Nc2ccnc3ccc(C(F)(F)F)cc23)cc1O` and `Cc1ccc(CCNCC(O)c2cccc(C(F)(F)F)c2)cc1` (configuration not stated) are within 1.5-fold of each other in XC50: 956 nM for the first, 868 nM for the second.

First: CCCCCc1cc(O)c2c(c1)OC(C)(C)C=C2C1=CCN(Cc2ccsc2)CC1
Second: CCCCCCCc1ccc(-c2c(C)[nH]c(C)c(Cl)c2=O)cn1
The XC50 of the first is 2.7-fold higher: 964 nM for the first, 361 nM for the second.

`CCCOc1cc(OCCC)cc(-c2cc(=O)c3ccccc3[nH]2)c1` and `Cc1nc(N)nc(N)c1OCCCCOc1ccccc1` are within 1.5-fold of each other in XC50: 58.1 nM for the first, 53.5 nM for the second.

`CS(=O)(=O)CCNCc1nc(-c2ccc3c(=O)[nH]cnc3c2)cs1` and `COc1ccc2nccc([C@@H](O)CN3CCC(NS(=O)(=O)c4cc5c(cc4Cl)SCC(=O)N5)CC3)c2c1` are within 1.5-fold of each other in XC50: 1010 nM for the first, 982 nM for the second.

Going from `Cc1ccc2c(=NN=Cc3ccc(N(C)C)cc3)cc(C)[nH]c2c1` to `CCOc1ccc2c(=NN=Cc3ccc(F)cc3)cc(C)[nH]c2c1`, the XC50 falls from 881 nM to 584 nM (1.5-fold).

`COC(=O)Cn1c2ccccc2c2c(N)c(C(=O)OC)c(C)nc21` and `COC(=O)Cn1c(C2CCN(CC3CCN(C(=O)/C=C/c4ccc(Cl)c(Cl)c4)CC3)CC2)nc2ccccc21` are within 1.5-fold of each other in XC50: 938 nM for the first, 1200 nM for the second.

First: COc1ccc(CNCc2ccc(-c3ccc(-c4nc5cccc(C)c5[nH]4)s3)cc2)cc1
Second: COc1ccc(-c2cc(Nc3nc(-c4cccc(Cl)c4)nc4ccccc34)ccn2)cc1
The XC50 of the first is 4-fold lower: 180 nM for the first, 727 nM for the second.

`NC(=O)CCC(NC(=O)CNC(=O)Nc1cccc(C(F)(F)F)c1)C(=O)O` (configuration not stated) and `COc1cccc([C@@H](CC(=O)Nc2cc(C(F)(F)F)ccc2OC)Nc2ccc(C#N)c3ccccc23)c1` are within 1.5-fold of each other in XC50: 803 nM for the first, 993 nM for the second.

`COc1cc2nc(C)nc(Nc3ccc(Cc4ccccc4)cc3)c2cc1OC` and `CCOc1cc2ncnc(Nc3ccc(OCc4c(F)cccc4F)c(OC)c3)c2cc1OCC` are within 1.5-fold of each other in XC50: 730 nM for the first, 821 nM for the second.

`O=C(NC1CCC(CCN2CCc3ccc(-c4cnccn4)cc3CC2)CC1)c1cccc(-n2cccn2)c1` (configuration not stated) and `COc1ccc(OC)c(C=CC(=O)NC2CCC(CN3CCC(c4c[nH]c5ccccc45)CC3)CC2)c1` (configuration not stated) are within 1.5-fold of each other in XC50: 899 nM for the first, 653 nM for the second.

`NCCCNc1nccc(N2CCc3ncnc(Nc4ccc(OCc5cccc(F)c5)c(Cl)c4)c3C2)n1` and `COc1ccc(CNCc2ccccc2)cc1-c1ccc(S(=O)(=O)NCCN2CCCC2)c(C)c1` are within 1.5-fold of each other in XC50: 832 nM for the first, 856 nM for the second.

`Nc1c(Cl)cc(C(O)CNCCCCCCOCCc2ccc(CO)s2)cc1Cl` (configuration not stated) and `COc1cccc(C(=O)NCCc2cccc(Cl)c2)c1OCc1ccccc1` are within 1.5-fold of each other in XC50: 1050 nM for the first, 1260 nM for the second.

First: CC(C)CCOc1ccc(NC(=O)c2cccs2)cc1
Second: COc1ccc(-c2cccc(NC(=O)c3ccc(Cl)cc3)c2)cc1CN(C)CCN(C)C
The XC50 of the first is 1.5-fold lower: 514 nM for the first, 776 nM for the second.

First: CC(C)(CNC(=O)[C@@H]1CCCN(CCOc2ccc(Cl)cc2)C1)c1nc(-c2ccc(Cl)c(O)c2)c(-c2ccncc2)[nH]1
Second: O=C(c1ccc(Cl)cc1)N1CCOC(CCN2CCC(c3ccccc3)CC2)(c2ccc(Cl)c(Cl)c2)C1 (configuration not stated)
The XC50 of the first is 3.7-fold higher: 881 nM for the first, 238 nM for the second.

`Nc1c2c(nc3ccc(Oc4ccc(Br)cc4Br)cc13)CCCC2` and `Nc1nc(N)c2c(Oc3ccc(Cl)c(Cl)c3)cccc2n1` are within 1.5-fold of each other in XC50: 864 nM for the first, 871 nM for the second.

`Cc1nccn1CCNC(=O)CN1CCC2(CCC1=O)CC(=O)c1ccccc1O2` (configuration not stated) and `CN1C(=O)C(=NN=C(S)N2CCOCC2)c2ccccc21` are within 1.5-fold of each other in XC50: 802 nM for the first, 901 nM for the second.

`FC(F)(F)c1cnc(Sc2nnc(-c3ccncc3)o2)c(Cl)c1` and `O=C(/C=C/c1ccc(Cl)c(Cl)c1)N1CCC(CN2CCC(c3c[nH]c4cnccc34)CC2)CC1` are within 1.5-fold of each other in XC50: 272 nM for the first, 219 nM for the second.

`O=C(/C=C/c1ccc(Cl)c(Cl)c1)N1CCC(CN2C3CCC2CC(c2c[nH]c4ccccc24)C3)CC1` (configuration not stated) and `O=C(Nc1cccc(OC2CCN(Cc3ccccc3)CC2)c1)Nc1cccc([N+](=O)[O-])c1` are within 1.5-fold of each other in XC50: 737 nM for the first, 783 nM for the second.

`CC(C)(C)OC(=O)NCc1ccc(Nc2nnc(-c3ccc(OCC(=O)NCc4ccc(C(C)(C)C)cc4)c([N+](=O)[O-])c3)o2)cc1` and `CCNc1cc(C(=O)N[C@@H](Cc2ccccc2)[C@H](O)CNCc2cccc(-n3ccnc3)c2)cc(N2CCCC2=O)c1` are within 1.5-fold of each other in XC50: 800 nM for the first, 635 nM for the second.

First: Oc1ccc2c(CNC3CCCCC3)c(O)ccc2c1CNC1CCCCC1
Second: CN1CCCC1CCCOC(=O)c1ccc(N)cc1 (configuration not stated)
The XC50 of the first is 21-fold lower: 43.5 nM for the first, 916 nM for the second.

`CCC(CC)N1C(=O)C(c2ccccc2)(c2ccccc2)N=C1N` and `Nc1nc(O)c2c(n1)CCc1c(Br)cccc1-2` are within 1.5-fold of each other in XC50: 805 nM for the first, 697 nM for the second.
